Patent US10821079B2, “PKC activators and combinations thereof” (Cognitive Research Enterprises, Inc., priority 2011, dated 2020)

How the values were obtained:
[1] = tested on: primary rat hippocampal neurons; experiment: Neuroprotection against ASPD induced toxicity, MTT, primary neurons; assay type: cell-based
Description: Viability of cells was measured by MTT assay. MTT (3-(4,5-Dimethylthiazol-2-yl)-2,5-diphenyltetrazolium bromide) is a tetrazolium salt that is cleaved to formazan by the succinate dehydrogenase, which is only active in viable cells. After solubilization of the formazan, the amount of dye can be quantified with a microplate reader at 570 nm along with a reference of 630 nm. For MTT assay, 5×104 primary rat hippocampal neurons from 18-day-old embryonic Sprague-Dawley rat brains were plated on each well of 24-well plates coated with poly-D-lysine. After treatment, the cells were washed with 1×PBS and were incubated with 200 μl of 1 mg/ml MTT solution (Sigma, USA) at 37° C. for 2 hr. Then the MTT-solution was removed and the cells were lysed with 200 μl isopropanol containing 0.04 M HCl and 160 mM NaOH for 10 min. Finally, the reading was done at 570 nm and 630 nm. All the samples were done in triplicates and the data was represented as the percentage of control.
All studies used 50 nM ASPDs. The viability of the cells were measured by the MTT assay.

PKC-α = PKC-α translocation to membrane in SH-SY5Y cells (Western blot); assay type: cell-based, human; conditions: 0.27 nM, 0-60 min
Description: Cells were harvested in homogenizing buffer containing 10 mM Tris-Cl (pH 7.4), 1 mM PMSF (phenylmethylsulfonyl fluoride), 1 mM EGTA, 1 mM EDTA, 50 mM NaF, and 20 μM leupeptin and were lysed by sonication. The homogenate was centrifuged at 100,000×g for 15 min at 4° C. to obtain the cytosolic fraction (supernatant) and membrane (pellet). The pellet was resuspended in the homogenizing buffer by sonication. Protein concentration was measured using the Coomassie Plus (Bradford) Protein Assay kit (Pierce, USA). Following quantification, 20 μg of protein from each sample was subjected to SDS-PAGE analysis in 4-20% gradient Tris-Glycine gel (Invitrogen, USA). The separated protein was then transferred to nitrocellulose membrane. The membrane was blocked with BSA at room temperature for 15 min and was incubated with primary antibody over night at 4° C. […] Western Blot was imaged in the ImageQuant RT-ECL (GE Life Sciences, Piscataway, N.J.) and densitometric quantification was performed using the IMAL software (Blanchette Rockefeller Neurosciences Institute, Morgantown, W. Va.). […]
Equal amounts of proteins were loaded in each lane (20 μg) for both the cytosol and membrane fractions. Activation of PKC was calculated as the percentage of total PKC in the membrane (membrane/cytosol+membrane).

GSK-3β = experiment: Phospho GSK-3β (Ser-9) Western Blot in ASPD treated primary neurons; assay type: cell-based, rat; conditions: 50 nM ASPD + 100 nM DCPLA-ME
Text: Phospho GSK-3β expression was normalized against total GSK-3β expression. […] Data are represented as mean±SEM. (Student's t test *. p<0.05; and **, p<0.005 n=3).
Since GSK-3β is a key enzyme in the production of hyperphosphorylated tau protein, and phosphorylation of the Ser-9 residue causes GSK-3β inhibition, increasing phosphorylation of GSK-3β at Ser-9 by PKC could also enhance the protective effect of DCPLA-ME.

rat hippocampal neurons = experiment: Differentiation of seven day old rat hippocampal neurons; assay type: cell-based; conditions: RA 10 μM, bryostatin 1 0.27 nM, DCPLA-ME 100 nM
Description: FIG. 27: PKC-ε specific activation induces maturation and differentiation in rat primary neurons. Seven day old culture of rat hippocampal neurons were treated with RA (10 μM), 0.27 nM bryostatin 1(Bry), RA+bryostatin 1(RA+Bry), DCPLA-ME (100 nM) or RA+DCPLA-ME for 48 h. FIG. 27A—Confocal micrographs showing rat hippocampal neurons stained for MAP-2 (green), synaptophysin (red), and DAPI (blue). FIG. 27B—Graphical representation of number of dendritic branches per neuron. PKCε activation by RA+bryostatin 1(RA+Bry), DCPLA-ME or RA+DCPLA-ME increase the dendritic branching by 2-fold. FIG. 27C—Mean fluorescence intensity for MAP-2 or synaptophysin calculated from eight random 225 μm2 of confocal images. Data are represented as mean±SE. * represents significance with respect to control (* p<0.05, ** p<0.005 and *** p<0.0005).
Dendritic branching was increased in the cells treated with RA and a PKC activator, as evidenced by the MAP-2 staining. Similarly, the synaptic vesicle pool increased was also seen by increased synaptophysin.
The effect of RA+bryostatin 1 on development of primary neurons was also investigated. Seven day old rat hippocampal neurons were treated with RA, bryostatin 1, RA+bryostatin 1, DCPLA-methyl ester (“DCPLA-ME”) or RA+DCPLA-ME for 48 hr. RA+bryostatin produced a greater increase of MAP2 and synaptophysin than RA or bryostatin alone (FIGS. 27A & C).

Row | Structure (SMILES) | viability (Example 25) ([1]; 50 nM ASPDs alone (ASPD) or with the treatment named, 24 hr) | viability at 0.00027 µM ([1]; Rattus norvegicus, Hippocampal neuron, 20 h, read-out: viability restored in ASPD-treated primary neurons) [%] | PKC-α translocation over time (in words) (PKC-α) | phosphorylation of Ser-9 of GSK-3β (in words) (GSK-3β) | increase of dendritic branching (rat hippocampal neurons; 48 h) [fold] | Fractal dimension (dendritic branching) (rat hippocampal neurons; 48 hr)
1 | CCC/C=C/C=C/C(=O)O[C@H]1/C(=C/C(=O)OC)C[C@H]2C[C@H]([C@@H](C)O)OC(=O)C[C@H](O)C[C@@H]3C[C@H](OC(C)=O)C(C)(C)C(O)(C[C@@H]4C/C(=C/C(=O)OC)C[C@H](/C=C/C(C)(C)[C@]1(O)O2)O4)O3 [Bryostatin-1] | 71.38%±2.34 | 73.2 ± 3.6 | came down to baseline at 60 min | – | – | –
2 | CCCCCC1CC1CC1CC1CCCCCCCC(=O)OC (stereo not drawn) [DCPLA-ME, methyl 8-(2-((2-pentylcyclopropyl)methyl)cyclopropyl)octanoate] | – | – | – | restored phosphorylation of the Ser-9 residue of GSK-3β to normal levels | 2 | 1.40±0.03
